Data on five molecules can be found in patent US20110313672A1, “CELLULAR ANTIOXIDANT ACTIVITY (CAA) ASSAY” (CORNELL UNIVERSITY, priority 2007, published 2011).

Several values for one entry are separate records, joined by “and”; a condition that tells them apart may be missing. Equal values may be shown once.

For the first experiment, the system named is HepG2 cells. As to the kind of experiment: Cellular antioxidant activity (CAA) assay: inhibition of peroxyl radical-induced DCFH oxidation. The class given is cell-based, human. To be noted: Example 1; PBS wash; pure compounds; EC50 converted to quercetin equivalents. How it is done: Cells (e.g., human hepatocellular carcinoma cells; HepG2) are seeded at a density of e.g., 6×10^4/well on a 96-well microplate in 100 μL growth medium/well. It is preferred that only the inside wells of e.g., a 96-well microplate are used for the assay, since the outer wells have increased variation compared to that of the inner wells. Twenty-four hours after seeding the growth medium is removed and the wells are washed with PBS. Triplicate wells are treated for 1 h with 100 μL of a test compound (e.g., pure phytochemical compounds or fruit extracts) plus 25 μM DCFH-DA dissolved in treatment medium.
600 μM ABAP is then applied to the cells in 100 μL HBSS and the 96-well microplate is placed into a plate reader e.g., Fluoroskan Ascent FL plate-reader (ThermoLabsystems, Franklin, Mass.) at 37° C. Emission at 538 nm is measured with excitation at 485 nm, for example every 5 min for 1 h. Each plate should include triplicate control and blank wells: control wells contain cells treated with DCFH-DA and oxidant; blank wells contain cells treated with dye and HBSS without oxidant.
A test compound is assayed in multiple wells of e.g., a 96-well cell culture plate. Some wells are washed with 100 μL of phosphate-buffered saline (PBS) prior to the addition of ABAP, while other wells were not washed prior to the addition of ABAP. It was noted that the measured antioxidant activity of some fruit extracts (e.g., blueberries) was different when a PBS wash was used compared to when there was no PBS wash (see Table 2; FIGS. 3 and 4). This is likely due to non-specific binding of certain antioxidant compounds to the outer membrane, or a reduced uptake of the compound, thus the ratio of antioxidant activity values obtained with a PBS wash compared to a non-PBS wash indicates the bioavailability of the test compound. In order to accurately measure the intracellular antioxidant activity of a test compound, a PBS wash prior to the addition of a peroxyl initiator (e.g, ABAP) is necessary. The values obtained for cells assayed using a PBS wash should be compared to values obtained for the same cells assayed without a PBS wash. One of skill in the art can plan and perform experiments on a test compound in the presence and absence of a PBS wash, in order to accurately assess the intracellular antioxidant capacity of the test compound.
After blank subtraction from the fluorescence readings, the area under the curve of fluorescence versus time is integrated to calculate the cellular antioxidant activity (CAA) value at each concentration of pure phytochemical compound or fruit extract as follows:
where ∫SA is the integrated area under the sample fluorescence versus time curve and ∫CA is the integrated area from the control curve. The median effective dose (EC50) was determined for the pure phytochemical compounds and fruit extracts from the median effect plot of log (fa/fu) vs. log (dose), where fa is the fraction affected and fu is the fraction unaffected by the treatment. To quantify intra-experimental variation, the EC50 values are stated as mean±SD for triplicate sets of data obtained from the same experiment. Inter-experimental variation is obtained for some representative pure phytochemical compounds and fruit extracts by averaging the fluorescence values from triplicate wells in each trial to obtain one EC50 value per experiment and calculating the mean±SD for at least four trials. In each experiment, a standard is used, for example quecetin, thus permitting the cellular antioxidant activities for a test compounds to be expressed as μmol quercetin equivalents (QE)/100 μmol compound. Fruit extracts are expressed as μmol QE/100 g fruit. In order to compare the antioxidant quality of different fruits, cellular antioxidant activity (CAA) is also calculated as μmol QE/100 μmol total phenolics.
Human hepatocellular carcinoma HepG2 cells were seeded at a density of 6×10^4/well on a 96-well microplate in 100 μL growth medium/well. […]
For the molecule `O=c1cc(-c2ccc(O)c(O)c2)oc2cc(O)cc(O)c12` [Luteolin, luteolin], the CAA value came out at 22.2 ± 1 µmol QE/100 µmol.
Same read-out and setting: to `O=c1c(O)c(-c2cc(O)c(O)c(O)c2)oc2cc(O)cc(O)c12` [Myricetin, myricetin] belongs 33.1 ± 1 µmol QE/100 µmol.

Staying with this experiment, now noted: Example 1; no PBS wash; pure compounds; EC50 converted to quercetin equivalents.
For `O=c1cc(-c2ccc(O)c(O)c2)oc2cc(O)cc(O)c12` [Luteolin, luteolin], the CAA value is on record as 22.6±0.2 μmol QE/100 μmol.
Turning to `O=c1c(O)c(-c2cc(O)c(O)c(O)c2)oc2cc(O)cc(O)c12` [Myricetin, myricetin], the CAA value amounted to 36.8±3.8 μmol QE/100 μmol.

The experiment is the same for the next values; noted with them: Example 3, Table 7; PBS wash.
Consider `O=C(O[C@@H]1Cc2c(O)cc(O)cc2O[C@@H]1c1ccc(O)c(O)c1)c1cc(O)c(O)c(O)c1` [ECG, (−)-epicatechin gallate], for which the CAA was 31.9 ± 2.2 μmol of QE/100 μmol.
For `O=c1cc(-c2ccc(O)c(O)c2)oc2cc(O)cc(O)c12` [Luteolin, luteolin], the CAA is reported as 29.5 ± 2.1 μmol of QE/100 μmol.
Take `O=c1c(O)c(-c2cc(O)c(O)c(O)c2)oc2cc(O)cc(O)c12` [Myricetin, myricetin]: the CAA is recorded as 11.5 ± 0.7 μmol of QE/100 μmol.
Take `O=c1c(O)c(-c2ccccc2)oc2cc(O)cc(O)c12` [galangin]: the CAA is listed as 107.8 ± 6.4 μmol of QE/100 μmol.

The experiment is the same for the next values; noted with them: Example 3, Table 7; no PBS wash.
Turning to `O=C(O[C@@H]1Cc2c(O)cc(O)cc2O[C@@H]1c1ccc(O)c(O)c1)c1cc(O)c(O)c(O)c1` [ECG, (−)-epicatechin gallate], the CAA is given as 62.1 ± 1.9 μmol of QE/100 μmol.
As to `Oc1cc(O)c2c(c1)O[C@H](c1cc(O)c(O)c(O)c1)[C@H](O)C2` [EGC, (−)-epigallocatechin], the CAA is given as 12.1 ± 2.2 μmol of QE/100 μmol.
With `O=c1cc(-c2ccc(O)c(O)c2)oc2cc(O)cc(O)c12` [Luteolin, luteolin], the CAA is 37.1 ± 0.0 μmol of QE/100 μmol.
`O=c1c(O)c(-c2cc(O)c(O)c(O)c2)oc2cc(O)cc(O)c12` [Myricetin, myricetin]: the CAA is listed as 28.4 ± 0.9 μmol of QE/100 μmol.
As for `O=c1c(O)c(-c2ccccc2)oc2cc(O)cc(O)c12` [galangin], the CAA was 66.3 ± 1.1 μmol of QE/100 μmol.

Still in this experiment, the particulars now being: Homo sapiens, HepG2, Example 1, Table 1; PBS wash; pure phytochemical compounds; mean ± SD, n=3; read-out: EC50 for inhibition of peroxyl radical-induced DCFH oxidation.
As usually defined, the EC50 is the concentration giving half of the maximal effect. As for `O=c1cc(-c2ccc(O)c(O)c2)oc2cc(O)cc(O)c12` [Luteolin, luteolin], the EC50 was found to be 23.1 ± 1 µM.
On to `O=c1c(O)c(-c2cc(O)c(O)c(O)c2)oc2cc(O)cc(O)c12` [Myricetin, myricetin], for which the EC50 turned out to be 15.4 ± 0.5 µM.

The same experiment, now with this note: Homo sapiens, HepG2, Example 1, Table 1; no PBS wash; pure phytochemical compounds; mean ± SD, n=3; read-out: EC50 for inhibition of peroxyl radical-induced DCFH oxidation.
For `O=c1cc(-c2ccc(O)c(O)c2)oc2cc(O)cc(O)c12` [Luteolin, luteolin], the concentration for a half-maximal effect (EC50) came to 26.1 ± 0.26 µM.
Take `O=c1c(O)c(-c2cc(O)c(O)c(O)c2)oc2cc(O)cc(O)c12` [Myricetin, myricetin]: the EC50 came to 16.1 ± 1.7 µM.

Still in this experiment, the particulars now being: Homo sapiens, HepG2, Example 3, Table 7; PBS wash; flavonoids; mean ± SD, n=3; read-out: EC50.
Consider `O=C(O[C@@H]1Cc2c(O)cc(O)cc2O[C@@H]1c1ccc(O)c(O)c1)c1cc(O)c(O)c(O)c1` [ECG, (−)-epicatechin gallate], for which the EC50 turned out to be 25.6 ± 1.8 µM.
Turning to `Oc1cc(O)c2c(c1)O[C@H](c1cc(O)c(O)c(O)c1)[C@H](O)C2` [EGC, (−)-epigallocatechin], the EC50 is more than 100 µM.
Take `O=c1cc(-c2ccc(O)c(O)c2)oc2cc(O)cc(O)c12` [Luteolin, luteolin]: the EC50 was 27.7 ± 2 µM.
With `O=c1c(O)c(-c2cc(O)c(O)c(O)c2)oc2cc(O)cc(O)c12` [Myricetin, myricetin], the EC50 worked out at 70.7 ± 4.2 µM.
On the same count and under the same terms, to `O=c1c(O)c(-c2ccccc2)oc2cc(O)cc(O)c12` [galangin] belongs 7.56 ± 0.46 µM.

Still in this experiment, the particulars now being: Homo sapiens, HepG2, Example 3, Table 7; no PBS wash; flavonoids; mean ± SD, n=3; read-out: EC50.
`O=C(O[C@@H]1Cc2c(O)cc(O)cc2O[C@@H]1c1ccc(O)c(O)c1)c1cc(O)c(O)c(O)c1` [ECG, (−)-epicatechin gallate]: the EC50 worked out at 14.2 ± 0.4 µM.
As to `Oc1cc(O)c2c(c1)O[C@H](c1cc(O)c(O)c(O)c1)[C@H](O)C2` [EGC, (−)-epigallocatechin], the EC50 is 74.2 ± 12.9 µM.
`O=c1cc(-c2ccc(O)c(O)c2)oc2cc(O)cc(O)c12` [Luteolin, luteolin]: the EC50 came to 23.8 µM.
The same measure, in the same setting: the value for `O=c1c(O)c(-c2cc(O)c(O)c(O)c2)oc2cc(O)cc(O)c12` [Myricetin, myricetin] was 31.1 ± 1 µM; that for `O=c1c(O)c(-c2ccccc2)oc2cc(O)cc(O)c12` [galangin] was 13.3 ± 0.2 µM.

Still in this experiment, the particulars now being: Homo sapiens, HepG2, Example 3, text; no PBS wash; read-out: EC50.
In the case of `O=c1c(O)c(-c2cc(O)c(O)c(O)c2)oc2cc(O)cc(O)c12` [Myricetin, myricetin], the EC50 was 31.1 ± 1 µM.

Still in this experiment, the particulars now being: PBS wash protocol.
As for `Oc1cc(O)c2c(c1)O[C@H](c1cc(O)c(O)c(O)c1)[C@H](O)C2` [EGC, (−)-epigallocatechin], the “cellular antioxidant activity, result in words” value is recorded as “low activity at the concentrations tested”.

Tested on in a further experiment: not listed separately
As to the kind of experiment: Oxygen radical absorbance capacity (ORAC) assay. Conditions: Example 3; flavonoids; mean ± SD, n ≧ 3. How it is done:
The peroxyl radical scavenging efficacy of selected fruits was measured using the ORAC assay (Prior, R. L., et al (2003) J. Agric. Food Chem. 51:3273-3279). Briefly, 20 μL of blank, Trolox standard, or fruit extracts in 75 mM potassium phosphate buffer, pH 7.4 (working buffer), was added to triplicate wells in a black, clear-bottom, 96-well microplate. The triplicate samples were distributed throughout the microplate and were not placed side-by-side, to avoid any effects on readings due to location. In addition, no outside wells were used, as use of those wells results in greater variation. A volume of 200 μL of 0.96 μM fluorescein in working buffer was added to each well and incubated at 37° C. for 20 min, with intermittent shaking, before the addition of 20 μL of freshly prepared 119 mM ABAP in working buffer using a 12-channel pipetter. The microplate was immediately inserted into a Fluoroskan Ascent FL plate reader (ThermoLabsystems) at 37° C. The decay of fluorescence at 538 nm was measured with excitation at 485 nm every 4.5 min for 2.5 h. The areas under the fluorescence versus time curve for the samples minus the area under the curve for the blank were calculated and compared to a standard curve of the areas under the curve for 6.25, 12.5, 25, and 50 μM Trolox standards minus the area under the curve for blank. ORAC values were expressed as mean micromoles of Trolox equivalents (TE) per 100 g of fruit±SD for triplicate data from one experiment.
ORAC measurements were performed as described herein in Example 2.
In the case of `O=C(O[C@@H]1Cc2c(O)cc(O)cc2O[C@@H]1c1ccc(O)c(O)c1)c1cc(O)c(O)c(O)c1` [ECG, (−)-epicatechin gallate], the ORAC is given as 7.71 ± 1.57 cde μmol of TE/μmol.
`Oc1cc(O)c2c(c1)O[C@H](c1cc(O)c(O)c(O)c1)[C@H](O)C2` [EGC, (−)-epigallocatechin]: the ORAC was 3.11±0.73 μmol of TE/μmol and 3.11 ± 0.73 cde μmol of TE/μmol.
`O=c1cc(-c2ccc(O)c(O)c2)oc2cc(O)cc(O)c12` [Luteolin, luteolin]: the ORAC is 8.55 ± 0.85 cde μmol of TE/μmol.
Same read-out and setting: to `O=c1c(O)c(-c2cc(O)c(O)c(O)c2)oc2cc(O)cc(O)c12` [Myricetin, myricetin] belongs 4.55±0.50 μmol of TE/μmol and 4.55 ± 0.50 fgh μmol of TE/μmol; to `O=c1c(O)c(-c2ccccc2)oc2cc(O)cc(O)c12` [galangin], 2.63 ± 1.31 gh μmol of TE/μmol.

Staying with this experiment, now noted: Example 3; flavonoids; mean ± SD, n ≧ 3; listed as Galangin.
Consider `O=c1c(O)c(-c2ccccc2)oc2cc(O)cc(O)c12` [galangin], for which the ORAC was 2.63±1.31 μmol of TE/μmol.
